Experimental data: publication doi:10.1101/2021.10.07.463234v2 (biorxiv, 2021)
Where a name gives a salt, the structure may show the parent alone. Peptide text beside a SMILES is read from it.

Target: SARS-CoV-2 Mac1 (Severe acute respiratory syndrome coronavirus 2, UniProt P0DTD1)
Assay: biochemical
Conditions: for inhibition at 100 µM: read-out: %inhibition; for %inhibition: 100 µM, inhibitor

## CC(C)[C@H](N)C(=O)OCC(CO)OCn1cnc2c(=O)nc(N)[nH]c21 (some centres unmarked) [Valganciclovir HCl]
  inhibition at 100 µM: 0%

## C#C[C@]1(O)CC[C@H]2[C@@H]3CCC4=CC(=O)CC[C@@H]4[C@H]3CC[C@@]21C [Norethindrone]
  inhibition at 100 µM: 0%

## Cc1cc(Nc2cc(CN3CCOCC3)c3nc(C)c(Cc4ccc(Cl)cc4F)n3n2)n[nH]1 [Gandotinib (LY2784544)]
  inhibition at 100 µM: 0%

## CC(C)OC(=O)OCOP(=O)(CO[C@H](C)Cn1cnc2c(N)ncnc21)OCOC(=O)OC(C)C [Tenofovir Disoproxil Fumarate]
  inhibition at 100 µM: 0%

## OC(Cn1cncn1)(Cn1cncn1)c1ccc(F)cc1F [Fluconazole]
  inhibition at 100 µM: 16.6%

## O=C1N=C(O)NC1(c1ccccc1)c1ccccc1 [Phenytoin Sodium]
  inhibition at 100 µM: 16%

## COC(=O)[C@H](Cc1ccccc1)NC(=O)[C@@H](N)CC(=O)O [Aspartame] (H-Asp-Phe-OMe)
  inhibition at 100 µM: 0%

## CCOC(=O)C1=C(C)NC(C)=C(C(=O)OC)C1c1cccc([N+](=O)[O-])c1 (centres unmarked) [Nitrendipine]
  inhibition at 100 µM: 4.31%

## COc1ccc2cc3[n+](cc2c1OC)CCc1cc2c(cc1-3)OCO2 [Berberine chloride]
  %inhibition: 8.063%

## CCCc1nc(C(C)(C)O)c(C(=O)O)n1Cc1ccc(-c2ccccc2-c2nnn[nH]2)cc1 [Olmesartan]
  inhibition at 100 µM: 0%

## COc1cc(Nc2ncc3c(n2)-c2ccc(Cl)cc2C(c2c(F)cccc2OC)=NC3)ccc1C(=O)O [Alisertib (MLN8237)]
  inhibition at 100 µM: 8.76%

## O=C(CCCN1CCN(c2ccccn2)CC1)c1ccc(F)cc1 [Azaperone]
  inhibition at 100 µM: 22.5%

## CC1=NN(c2ccc(C)c(C)c2)C(=O)/C1=N\Nc1cccc(-c2cccc(C(=O)O)c2)c1O [Eltrombopag Olamine]
  %inhibition: 18.42%

## Clc1cccc(Cl)c1NC1=NCCN1 [Clonidine HCl]
  inhibition at 100 µM: 0%

## C=C1CC[C@H](O)C/C1=C/C=C1\CCC[C@]2(C)[C@@H]([C@H](C)/C=C/[C@H](C)C(C)C)CC[C@@H]12 [Vitamin D2]
  inhibition at 100 µM: 0%

## CCN(CCCCOC(=O)c1ccc(OC)c(OC)c1)C(C)Cc1ccc(OC)cc1 (centres unmarked) [Mebeverine Hydrochloride]
  inhibition at 100 µM: 5.64%

## Cc1onc(-c2c(F)cccc2Cl)c1C(=O)N[C@@H]1C(=O)N2[C@@H]1SC(C)(C)[C@@H]2C(=O)O [Flucloxacillin sodium]
  inhibition at 100 µM: 1.41%

## Nc1ncnc2c1ncn2[C@@H]1O[C@H](CO)[C@@H](O)[C@@H]1O [Vidarabine]
  %inhibition: 17.83%

## O=c1ccn([C@@H]2O[C@H](CO)[C@@H](O)[C@H]2O)c(=O)[nH]1 [Uridine]
  inhibition at 100 µM: 0%

## CC[C@H](C)C[C@H](C)CCCCCCCCC(=O)N[C@H]1C[C@@H](O)[C@@H](NCCN)NC(=O)[C@@H]2[C@@H](O)CCN2C(=O)[C@H]([C@H](O)CCN)NC(=O)[C@H]([C@H](O)[C@@H](O)c2ccc(O)cc2)NC(=O)[C@@H]2C[C@@H](O)CN2C(=O)[C@H]([C@@H](C)O)NC1=O [Caspofungin Acetate]
  inhibition at 100 µM: 0%

## CN(C)C(=O)COC(=O)Cc1ccc(OC(=O)c2ccc(NC(=N)N)cc2)cc1 [Camostat Mesilate]
  inhibition at 100 µM: 42.9%

## COc1ccc2[nH]cc(CCNC(C)=O)c2c1 [Melatonin]
  inhibition at 100 µM: 9.33%

## C[C@@](Cc1ccc(O)c(O)c1)(NN)C(=O)O [Carbidopa]
  inhibition at 100 µM: 24.2%

## COc1cc(S(=O)(=O)O)ccc1O [Sulfogaiacol]
  inhibition at 100 µM: 0%

## CCCCCCCN(CC)CCCC(O)c1ccc(NS(C)(=O)=O)cc1 (centres unmarked) [Ibutilide Fumarate]
  inhibition at 100 µM: 0%

## O=C1c2cccc(O)c2C(=O)c2c(O)cccc21 [Danthron]
  inhibition at 100 µM: 0%

## CC(C)C[C@H](NC(=O)[C@@H](NC(=O)c1cccc(-c2ccccc2)n1)[C@@H](C)O)B(O)O [Delanzomib (CEP-18770)]
  inhibition at 100 µM: 0%

## C=C[C@@H]1C[C@]1(NC(=O)[C@@H]1C[C@@H](Oc2ncc(OC)c3ccc(Cl)cc23)CN1C(=O)[C@@H](NC(=O)OC(C)(C)C)C(C)(C)C)C(=O)NS(=O)(=O)C1CC1 [Asunaprevir]
  inhibition at 100 µM: 0%

## COC(=O)N[C@H](C(=O)N1CCC[C@H]1c1ncc(-c2ccc(-c3ccc(-c4cnc([C@@H]5CCCN5C(=O)[C@@H](NC(=O)OC)C(C)C)[nH]4)cc3)cc2)[nH]1)C(C)C [Daclatasvir (BMS-790052)]
  inhibition at 100 µM: 1.65%

## CC1CCc2cc(F)cc3c(=O)c(C(=O)O)cn1c23 (centres unmarked) [Flumequine]
  inhibition at 100 µM: 0%

## OCC(O)CN1CCN(c2ccccc2)CC1 (centres unmarked) [Dropropizine]
  inhibition at 100 µM: 20.7%

## Cc1cccc(Nc2ccncc2S(=O)(=O)NC(=O)NC(C)C)c1 [Torsemide]
  inhibition at 100 µM: 15.1%

## Nc1nc(=O)[nH]cc1F [Flucytosine]
  inhibition at 100 µM: 0%

## Cc1[nH]c2ccccc2c1CCNCc1ccc(/C=C/C(=O)NO)cc1 [Panobinostat (LBH589)]
  inhibition at 100 µM: 7.31%

## CC1(C)S[C@@H]2[C@H](NC(=O)C(C(=O)O)c3ccccc3)C(=O)N2[C@H]1C(=O)O (some centres unmarked) [Carbenicillin disodium]
  inhibition at 100 µM: 2.9%

## Nc1ncn([C@@H]2O[C@H](CO)[C@@H](O)[C@H]2O)c(=O)n1 [Azacitidine]
  inhibition at 100 µM: 32.2%

## OC[C@@H](O)CN1CCN(c2ccccc2)CC1 [Levodropropizine]
  inhibition at 100 µM: 4.43%

## COc1ccc(CN2CCNCC2)c(OC)c1OC [Trimetazidine dihydrochloride]
  inhibition at 100 µM: 0%

## C=CN1CCCC1=O [Povidone iodine]
  inhibition at 100 µM: 0%

## CN1CCC(=C2c3ccccc3CC(=O)c3sccc32)CC1 [Ketotifen Fumarate]
  inhibition at 100 µM: 0%

## CC(=O)[C@H]1CC[C@H]2[C@@H]3CCC4=CC(=O)CC[C@]4(C)[C@H]3CC[C@]12C [Progesterone]
  inhibition at 100 µM: 1.73%

## FC(F)(F)c1ccc(CNc2ccc(Cc3c[nH]c4ncc(Cl)cc34)cn2)cn1 [Pexidartinib (PLX3397)]
  inhibition at 100 µM: 0.21%

## CC1(C)O[C@@H]2C[C@H]3[C@@H]4C[C@H](F)C5=CC(=O)C=C[C@]5(C)[C@@]4(F)[C@@H](O)C[C@]3(C)[C@]2(C(=O)CO)O1 [Fluocinolone Acetonide]
  inhibition at 100 µM: 0%

## CC(C)[C@H]1CC[C@H](C(=O)N[C@H](Cc2ccccc2)C(=O)O)CC1 [Nateglinide]
  inhibition at 100 µM: 0%

## COC(=O)C1=C(C)NC(C)=C(C(=O)OC(C)C)C1c1cccc2nonc12 (centres unmarked) [Isradipine]
  inhibition at 100 µM: 0%

## C[C@H]1c2cccc(O)c2C(=O)C2=C(O)[C@]3(O)C(=O)C(C(N)=O)=C(O)[C@@H](N(C)C)[C@@H]3[C@@H](O)[C@@H]21 [Doxycycline]
  %inhibition: 4.525%

## CCS(=O)(=O)CCn1c([N+](=O)[O-])cnc1C [Tinidazole]
  inhibition at 100 µM: 0%

## Cc1nnc(C(=O)NC(C)(C)c2nc(C(=O)NCc3ccc(F)cc3)c(O)c(=O)n2C)o1 [Raltegravir potassium]
  %inhibition: 7.113%

## C[C@H]1CN(C[C@H](Cc2ccccc2)C(=O)NCC(=O)O)CC[C@@]1(C)c1cccc(O)c1 [Alvimopan dihydrate]
  inhibition at 100 µM: 12.8%

## C[N+](C)(C)CCCCCC[N+](C)(C)C [Hexamethonium?Dibromide]
  inhibition at 100 µM: 0%

## C[C@H](Oc1cc(-c2cnn(C3CCNCC3)c2)cnc1N)c1c(Cl)ccc(F)c1Cl [(S)-crizotinib]
  inhibition at 100 µM: 4.9%

## O=C(O)CCCc1ccccc1 [Sodium Phenylbutyrate]
  inhibition at 100 µM: 6.6%

## C[C@H]1[C@H](NC(=O)/C(=N\OC(C)(C)C(=O)O)c2csc(N)n2)C(=O)N1S(=O)(=O)O [Aztreonam]
  inhibition at 100 µM: 11.7%
